Structures can show the parent of a compound that is named as a salt.
What was measured:
[1] = target: human FGFR-1 (Homo sapiens, UniProt P11362); assay: FGFR-1 high ATP kinase assay (TR-FRET)
[2] = target: human FGFR-3 (Homo sapiens (Human), UniProt P22607); assay: FGFR-3 kinase assay (TR-FRET); assay type: biochemical; settings: 10 μM ATP, 15 min pre-incubation with enzyme
[3] = target: human mTOR (Homo sapiens (Human), UniProt P42345); assay: mTOR kinase assay (TR-FRET, for comparative purposes); assay type: biochemical; settings: read-out: mTOR % inhibition @ 1 μM, 1 μM test compound, 40 μM ATP, mean values
Experimental: mTOR inhibitory activity of the compounds of the present invention was quantified employing the TR-FRET based mTOR assay as described in the following paragraphs:
Test compounds were dissolved in DMSO to generate 10 mM stock solutions. These solutions were first 10-fold diluted by 100% DMSO to get 1 mM solutions in 100% DMSO, then 100-fold diluted by 50% DMSO to get 10 μM solutions in 50% DMSO.
(final concentration in the 10 μl assay volume=1 nM) in FRET buffer.
For this, the fluorescence emissions at 495 nm and 520 nm after excitation at 340 nm was measured in an Envision 2104 multilabel reader (Perkin-Elmer).

human FGFR-3, sequence (P22607 397-806): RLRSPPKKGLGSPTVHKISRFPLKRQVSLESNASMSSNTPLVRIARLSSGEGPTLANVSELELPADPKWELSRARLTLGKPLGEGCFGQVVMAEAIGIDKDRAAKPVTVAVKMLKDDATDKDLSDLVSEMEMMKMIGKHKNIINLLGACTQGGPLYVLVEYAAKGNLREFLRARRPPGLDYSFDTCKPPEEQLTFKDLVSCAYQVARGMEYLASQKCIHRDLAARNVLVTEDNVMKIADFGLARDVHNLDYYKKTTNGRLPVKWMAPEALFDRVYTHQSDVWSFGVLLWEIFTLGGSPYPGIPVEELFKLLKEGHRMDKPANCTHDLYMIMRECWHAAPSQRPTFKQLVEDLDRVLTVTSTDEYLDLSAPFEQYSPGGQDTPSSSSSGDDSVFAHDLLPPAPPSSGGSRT
human FGFR-1, sequence (P11362 22-822 limits assumed): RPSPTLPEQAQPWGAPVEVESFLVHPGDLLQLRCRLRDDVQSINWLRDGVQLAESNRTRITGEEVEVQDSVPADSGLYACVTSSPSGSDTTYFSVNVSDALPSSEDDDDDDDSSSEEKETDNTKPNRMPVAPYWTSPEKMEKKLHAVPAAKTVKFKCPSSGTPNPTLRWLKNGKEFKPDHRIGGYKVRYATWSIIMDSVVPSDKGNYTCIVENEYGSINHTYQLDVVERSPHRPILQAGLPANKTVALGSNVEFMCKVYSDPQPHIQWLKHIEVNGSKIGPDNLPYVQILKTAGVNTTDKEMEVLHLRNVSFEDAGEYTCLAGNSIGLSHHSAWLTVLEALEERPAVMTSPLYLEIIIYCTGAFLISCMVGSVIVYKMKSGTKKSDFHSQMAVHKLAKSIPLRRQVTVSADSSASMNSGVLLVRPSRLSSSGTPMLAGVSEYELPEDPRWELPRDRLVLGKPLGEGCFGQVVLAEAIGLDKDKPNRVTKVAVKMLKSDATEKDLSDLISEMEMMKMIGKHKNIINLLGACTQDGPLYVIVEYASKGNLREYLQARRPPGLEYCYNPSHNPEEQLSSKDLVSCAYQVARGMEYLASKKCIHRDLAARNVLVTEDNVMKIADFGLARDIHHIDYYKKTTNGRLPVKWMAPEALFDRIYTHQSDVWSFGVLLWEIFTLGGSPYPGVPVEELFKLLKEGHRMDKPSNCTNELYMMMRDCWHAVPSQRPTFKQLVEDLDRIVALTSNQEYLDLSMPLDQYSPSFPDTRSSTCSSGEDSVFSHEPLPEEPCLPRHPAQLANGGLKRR
human mTOR, sequence (P42345 1360-2549): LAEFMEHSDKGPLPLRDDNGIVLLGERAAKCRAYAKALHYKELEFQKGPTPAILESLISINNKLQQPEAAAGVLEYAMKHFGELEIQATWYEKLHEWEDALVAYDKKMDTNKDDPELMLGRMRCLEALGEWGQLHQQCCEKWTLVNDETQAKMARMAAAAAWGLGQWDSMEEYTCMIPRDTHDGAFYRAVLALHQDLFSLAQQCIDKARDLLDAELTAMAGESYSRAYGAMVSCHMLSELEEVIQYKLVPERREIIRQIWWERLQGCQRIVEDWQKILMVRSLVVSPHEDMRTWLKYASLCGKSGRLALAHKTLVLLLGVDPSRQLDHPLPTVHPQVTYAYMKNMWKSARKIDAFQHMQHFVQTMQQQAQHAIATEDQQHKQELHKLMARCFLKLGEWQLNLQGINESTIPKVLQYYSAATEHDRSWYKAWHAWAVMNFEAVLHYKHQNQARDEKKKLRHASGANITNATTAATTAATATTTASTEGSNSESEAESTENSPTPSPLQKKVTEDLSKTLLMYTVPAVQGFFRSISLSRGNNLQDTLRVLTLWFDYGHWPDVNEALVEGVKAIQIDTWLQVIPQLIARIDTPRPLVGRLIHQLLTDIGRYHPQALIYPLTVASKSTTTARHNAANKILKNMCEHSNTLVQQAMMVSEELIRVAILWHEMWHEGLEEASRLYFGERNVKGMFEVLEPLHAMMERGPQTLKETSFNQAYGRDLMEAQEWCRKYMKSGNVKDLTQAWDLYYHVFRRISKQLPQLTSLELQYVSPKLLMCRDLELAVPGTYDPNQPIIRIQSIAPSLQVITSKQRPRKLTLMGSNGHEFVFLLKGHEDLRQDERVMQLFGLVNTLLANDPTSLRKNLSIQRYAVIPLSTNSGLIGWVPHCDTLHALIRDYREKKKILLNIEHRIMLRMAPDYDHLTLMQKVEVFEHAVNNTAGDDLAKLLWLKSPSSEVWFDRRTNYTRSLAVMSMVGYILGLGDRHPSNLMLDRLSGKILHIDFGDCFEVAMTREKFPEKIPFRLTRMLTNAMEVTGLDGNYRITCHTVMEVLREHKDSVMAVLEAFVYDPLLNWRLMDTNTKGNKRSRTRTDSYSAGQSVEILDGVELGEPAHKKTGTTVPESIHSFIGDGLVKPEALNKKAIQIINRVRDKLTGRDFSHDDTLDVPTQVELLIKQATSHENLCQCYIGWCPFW

SMILES | IC50 [1] [nM] | IC50 [2] [nM] | inhibition at 1 µM [3] [%]
COc1cc(C)cc2cc(-c3cc(C(=O)N4CCC[C@@H](N)C4)n4ncnc(N)c34)sc12 [Example 104] | 28.1 | 14.6 | 17.9
CNCCOCc1cc(-c2cc3cc(C)cc(OC)c3s2)c2c(N)ncnn12 [Example 117] | 36.1 | 34.8 | 0.3
COc1cc(C)cc2cc(-c3cc(CN4CCN(C)CC4)n4ncnc(N)c34)sc12 [Example 12, 5-(7-Methoxy-5-methyl-1-benzothiophen-2-yl)-7-[(4-methylpiperazin-1-yl)methyl]pyrrole[2,1-f]-[1,2,4]triazin-4-amine bis(formiate)] | 39.1 |  | 11.4
COc1cc(C)cc2cc(-c3cc(COC4CCOC4)n4ncnc(N)c34)sc12 (stereo not shown) [Example 113] | 83.1 | 64.7 | 29.7
Nc1nccn2c(C3CCNCC3)nc(-c3cc4ccccc4[nH]3)c12 [WO 2007/061737 Example 25, reference compound] | 880 | 1200 | 
COc1cc(C)cc2cc(-c3cc(CNC4CCC(N)C4)n4ncnc(N)c34)sc12 (stereo not shown) [Example 40] | 63.8 |  | 15
COc1cc(C)cc2cc(-c3cc(CNCC4CCN(C)CC4)n4ncnc(N)c34)sc12 [Example 61] | 39.7 | 43.5 | 8.6
COc1cc(C)cc2cc(-c3cc(CN4CC(O)C4)n4ncnc(N)c34)sc12 [Example 91] | 36.9 | 23.9 | 17.7
COc1cc(C)cc2cc(-c3cc(CN4CC[C@@H](N)C4)n4ncnc(N)c34)sc12 [Example 53] | 94.1 | 145 | 12.6
CCN1CCN(Cc2cc(-c3cc4cc(C)cc(OC)c4s3)c3c(N)ncnn23)CC1 [Example 13, 7-[(4-Ethylpiperazin-1-yl)methyl]-5-(7-methoxy-5-methyl-1-benzothiophen-2-yl)pyrrole[2,1-f]-[1,2,4]triazin-4-amine formiate] | 93.6 |  | 25.2
COc1cc(C)cc2cc(-c3cc(CN4CCC(N5CCCC5)C4)n4ncnc(N)c34)sc12 (stereo not shown) [Example 60] | 39.6 | 58.6 | 11.3
COc1cc(C)cc2cc(-c3cc(CN(C)CCCN(C)C)n4ncnc(N)c34)sc12 [Example 52] | 87.8 |  | 7.3
COc1cc(C)cc2cc(-c3cc(CN4CCCN(CCO)CC4)n4ncnc(N)c34)sc12 [Example 59] | 39.4 | 47.7 | 7
COc1cc(C)cc2cc(-c3cc(CN[C@H]4CC[C@@H](N(C)C)CC4)n4ncnc(N)c34)sc12 [Example 87] | 13.2 | 29.1 | 21.9
COc1cc(C)cc2cc(-c3cc(CN4CCC(OC)CC4)n4ncnc(N)c34)sc12 [Example 82] | 97.3 | 71.9 | 18.7
CCCc1nccn1Cc1cc(-c2cc3cc(C)cc(OC)c3s2)c2c(N)ncnn12 [Example 121] | 33.3 | 65.9 | 26.8
COc1cc(C)cc2cc(-c3cc(CNCCN)n4ncnc(N)c34)sc12 [Example 32] | 23.3 |  | 41.3
Nc1nccn2c(C3CCN(C(=O)c4ccsc4)CC3)nc(-c3cc4ccccc4s3)c12 [WO 2007/061737 Example 157, reference compound] | 3000 | 2300 | 
COc1cc(C)cc2cc(-c3cc(CNCCNC(N)=O)n4ncnc(N)c34)sc12 [Example 30] | 54.2 |  | 16.2
COc1cc(C)cc2cc(-c3cc(CNCCN4CCC(O)CC4)n4ncnc(N)c34)sc12 [Example 58] | 36.2 | 46.7 | 12.6
COc1cc(C)cc2cc(-c3cc(CN4CCCNCC4)n4ncnc(N)c34)sc12 [Example 48] | 28.9 |  | 16.9
COc1cc(C)cc2cc(-c3cc(COCCN4CCCC4)n4ncnc(N)c34)sc12 [Example 107, 5-(7-Methoxy-5-methyl-1-benzothiophen-2-yl)-7-{[2-(pyrrolidin-1-yl)ethoxy]methyl}pyrrolo-[2,1-f][1,2,4]triazin-4-amine hydrochloride] | 57.3 | 46.1 | 15
COc1cc(C)cc2cc(-c3cc(CN4CCC5CN(C)CC54)n4ncnc(N)c34)sc12 (stereo not shown) [Example 24] | 34.1 | 119 | 17.3
COc1cc(C)cc2cc(-c3cc(Cn4cc(C)nc4C)n4ncnc(N)c34)sc12 [Example 123] | 28.3 | 58 | 47.8

SMILES | IC50 [1] [nM] | IC50 [2] [nM] | inhibition at 1 µM [3] [%]
COc1cc(C)cc2cc(-c3cc(CNC4CCCNC4=O)n4ncnc(N)c34)sc12 (stereo not shown) [Example 37] | 44.9 |  | 13.4
COc1cc(C)cc2cc(-c3cc(CN4CCNC(C(C)(C)C)C4)n4ncnc(N)c34)sc12 (stereo not shown) [Example 49] | 58.9 |  | 1.3
COc1cc(C)cc2cc(-c3cc(CN(C)C4CCN(C)C4)n4ncnc(N)c34)sc12 (stereo not shown) [Example 46] | 20.8 |  | 26.3
COc1cccc2cc(-c3cc(CN4CCNCC4)n4ncnc(N)c34)sc12 [Example 3, 5-(7-Methoxy-1-benzothiophen-2-yl)-7-(piperazin-1-ylmethyl)pyrrolo[2,1-f][1,2,4]triazin-4-amine] | 92.8 |  | 12.2
COc1cc(C)cc2cc(-c3cc(CN4CCN(C(=O)C5CC5)CC4)n4ncnc(N)c34)sc12 [Example 93, (4-{[4-Amino-5-(7-methoxy-5-methyl-1-benzothiophen-2-yl)pyrrolo[2,1-f][1,2,4]triazin-7-yl]-methyl}piperazin-1-yl)(cyclopropyl)methanone] | 67 |  | 47.2
CNCCNCc1cc(-c2cc3cc(C)cc(OC)c3s2)c2c(N)ncnn12 [Example 29] | 50.4 |  | 2.4
COc1cc(C)cc2cc(-c3cc(CN4CCNC(=O)C4C)n4ncnc(N)c34)sc12 (stereo not shown) [Example 39] | 57.1 |  | 21.4
COc1cc(C)cc2cc(-c3cc(COCCN(C)C)n4ncnc(N)c34)sc12 [Example 108, 7-{[2-(Dimethylamino)ethoxy]methyl}-5-(7-methoxy-5-methyl-1-benzothiophen-2-yl)pyrrolo-[2,1-f][1,2,4]triazin-4-amine dihydrochloride] | 97.6 |  | 7.1
COc1cc(C)cc2cc(-c3cc(CN4CNC(=O)C4)n4ncnc(N)c34)sc12 [Example 63] |  | 34.5 | 26
Nc1nccn2c(C3CCC3)nc(-c3ccc4sccc4c3)c12 [WO 2007/061737 Example 4, reference compound] |  | 2400 | 
COc1cc(C)cc2cc(-c3cc(CNC4CCCN(C)C4)n4ncnc(N)c34)sc12 (stereo not shown) [Example 43] | 50.6 |  | 13.8
COc1cc(C)cc2cc(-c3cc(CN4CCN5CCCC5C4)n4ncnc(N)c34)sc12 (stereo not shown) [Example 50] | 59.3 |  | 3.4
COc1cc(C)cc2cc(-c3cc(CN4CCN(CCO)CC4)n4ncnc(N)c34)sc12 [Example 25] | 73.3 |  | 10.2
COc1cc(C)cc2cc(-c3cc(CN4CCNC(C)C4)n4ncnc(N)c34)sc12 (stereo not shown) [Example 51] | 41.3 |  | 0.9
COc1cc(C)cc2cc(-c3cc(CNCCNC(C)(C)C)n4ncnc(N)c34)sc12 [Example 34] | 99.3 |  | 4.9
COc1cc(C)cc2cc(-c3cc(CN4CCN(C(=O)C5CCC5)CC4)n4ncnc(N)c34)sc12 [Example 94, (4-{[4-Amino-5-(7-methoxy-5-methyl-1-benzothiophen-2-yl)pyrrolo[2,1-f][1,2,4]triazin-7-yl]-methyl}piperazin-1-yl)(cyclobutyl)methanone] | 68.1 |  | 44.7
COc1cc(C)cc2cc(-c3cc(CN4CC(C)NCC4C)n4ncnc(N)c34)sc12 (stereo not shown) [Example 44] | 38.8 |  | 10.8
COc1cc(C)cc2cc(-c3cc(CN4CCNC(c5cccs5)C4)n4ncnc(N)c34)sc12 (stereo not shown) [Example 35] | 16.4 |  | 34
CCC1CN(Cc2cc(-c3cc4cc(C)cc(OC)c4s3)c3c(N)ncnn23)CCN1 (stereo not shown) [Example 36] | 17 |  | 18.3
Cc1c(-c2nc(C3CCN(C(=O)c4ccsc4)CC3)n3ccnc(N)c23)sc2ccccc12 [WO 2007/061737 Example 209, reference compound] | 2800 | 786 | 
COc1cc(C)cc2cc(-c3cc(CN4C[C@@H]5CCCN[C@@H]5C4)n4ncnc(N)c34)sc12 [Example 47] | 25.2 |  | 29
Nc1nccn2c(C3CCC3)nc(-c3cc4ccccc4s3)c12 [WO 2007/061737 Example 120, reference compound] |  | 506 | 
COc1cc(C)cc2cc(-c3cc(CN4CCNC(C(=O)O)C4)n4ncnc(N)c34)sc12 (stereo not shown) [Example 38] | 45.7 |  | 11.2
COc1cc(C)cc2cc(-c3cc(CN4CCN(C(=O)CCC(N)=O)CC4)n4ncnc(N)c34)sc12 [Example 95, 4-(4-{[4-Amino-5-(7-methoxy-5-methyl-1-benzothiophen-2-yl)pyrrolo[2,1-f][1,2,4]triazin-7-yl]-methyl}piperazin-1-yl)-4-oxobutanamide dihydrochloride] | 95.7 |  | 40.3

Reference: patent US9475815B2, “Substituted benzothienyl-pyrrolotriazines and uses thereof” (Bayer Intellectual Property GmbH, priority 2012, dated 2016)
